These results are taken from paper PMC5469758, “Identification of an in vivo orally active dual-binding protein-protein interaction inhibitor targeting TNFα through combined in silico/in vitro/in vivo screening” (Scientific Reports, 2017).

For one data set, the system named is Balb/C mice. Briefly: LPS/D-Galactosamine induced lethal shock (TNFα-dependent hepatic shock model). Format: in vivo. The following applies: livers eight hours after LPS/D-Galactosamine. On the procedure:
7 weeks-old Balb/C mice were force-fed with 100 μl of a solution of DMSO containing various doses of compound 1 (5 mg down to 0.5 mg) eight hours before receiving an intraperitoneal injection of 200 μl of PBS containing 0.1 μg of LPS and 20 mg of D-Galactosamine. A control group (DMSO) was force-fed with 100 μl of a solution of DMSO alone eight hours before to be injected with 200 μl of LPS/D-Galactosamine solution. Mice survival was monitored for 48 hours after the injection of LPS/D-Galactosamine.
7 weeks-old Balb/C mice were forced-fed with a solution of DMSO containing 5 mg of compound 1 eight hours before receiving an intraperitoneal injection of 200 μl of PBS containing 0.1 μg of LPS and 20 mg of D-Galactosamine. Eight hours after LPS/D-Galactosamine injection, mice were sacrificed by cervical dislocation and livers were harvested, fixed in 4% formalin and embedded in paraffin. […] Slides were scanned with a slide scanner (Perkin Elmer) and analyzed with Pannoramic viewer (3D HISTECH).
7 weeks-old Balb/C mice were forced-fed with a solution of DMSO containing 5 mg of compound 1 eight hours before receiving an intraperitoneal injection of 200 μl of PBS containing 0.1 μg of LPS and 20 mg of D-Galactosamine. Three hours after LPS/D-Galactosamine injection, mice were anesthetized with ketamine/xylazine to recover blood by cardiac puncture. Sera were kept at −80 °C until assay.
TNFα in serum was quantified using U-CyTech biosciences kits (Utrecht, The Netherlands) according to manufacturer’s procedures.
7 weeks-old Balb/C mice were forced-fed with a solution of DMSO containing 5 mg of compound 1 eight hours before receiving an intraperitoneal injection of 200 μl of PBS containing 0.1 μg of LPS and 20 mg of D-Galactosamine. Eight hours after, mice were anesthetized by an injection of ketamine/xylazine to recover blood by cardiac puncture. Sera were kept at −80 °C until assay. Quantification of AST/ALT was performed using Architec ci 8200 analyser (Abbott) with reagent kits from Abbott.

The test system of a further data set is TNFα/TNFRI. Set-up: method as in PMID 16284179. To be noted: cited from earlier work.
In data set [1] the test system is human TNFα induced apoptosis on the L929 cell line. Briefly: Neutralization of human TNFα induced apoptosis in L929 cells (MTT). Format: cell-based. The following applies: L929 cells. Here is the method: 80% confluent L929 cells were plated in flat bottom plates at 4 × 10^5 cells per well in 100 μl of DMEM medium containing 10% FBS, 2 mM L-Glutamine, 100 U/ml Penicillin − 100 μg/ml Streptomycin and incubated for one night at 37 °C, 5% CO2. TNFα or TNFβ (150 pg/ml), Actinomycin D (4 μg/ml) and the compounds at different concentrations (ranging from 100 μM to 0.8 μM) were mixed in 150 μl DMEM medium 1% FBS, 2 mM L-Glutamine, 100 U/ml Penicillin−100 μg/ml Streptomycin in U-bottom plates. After two hours incubation at 37 °C, 5% CO2, 100 μl of the mix was added to the plated cells and incubated at 37 °C, 5% CO2 for 24 hours. Supernatants were discarded and 100 μl of MTT at 0.5 mg/ml were added to wells. After two hours, supernatants were discarded and 200 μl of DMSO were then added. Plates were read at 570 nm with a spectrophotometer providing the optical density (OD) of each well. The percentage of neutralization of TNFα by a compound was calculated using equation 3:3 %Neutra=ODcompound−ODTNFα/ODcells−ODTNFα×100
An IC50 could be computed from the percentage of neutralization for each compound.

For data set [2], the system named is TNFα induced NF-κB activation in HEK cells. Briefly: HEK-Blue TNFα NF-κB secreted embryonic alkaline phosphatase reporter assay. Format: cell-based, human. To be noted: HEK cells. Here is the method:
80% confluent HEK-Blue™ TNFα were plated in flat bottom plates at 5 × 10^4 per well in 100 μl of DMEM containing 2 mM L-Glutamine, 100 U/ml Penicillin − 100 μg/ml Streptomycin and incubated at 37 °C, 5% CO2. Serial dilutions of compounds (ranging from 100 μM to 0.8 μM) were mixed with 400 pg/ml of human TNFα in DMEM containing 2% of FBS, 2 mM L-Glutamine, 100 U/ml Penicillin−100 μg/ml Streptomycin in U-bottom plates. After two hours of incubation at 37 °C, 5% CO2, 100 μl of the mix was added to the plated cells and incubated 24 hours at 37 °C, 5% CO2. 20 μl of supernatants were incubated for 3 hours with 180 μl of QUANTI-Blue™ to reveal secretion of phosphatase alcaline and plates were read at 620 nm with a spectrophotometer providing the optical density (OD).
On the technique in general: In a reporter assay the amount or activity of a reporter protein is the signal.

On the set-up of data set [3]: method as in PMID 25160057. To be noted: cited from earlier work.
The target of the next data set is TNFα. The following applies: fluorescence binding assay; cited from earlier work.

For the molecule etanercept, in the data set on Balb/C mice, the “expression of cleaved caspase 3 in liver (immunohistochemistry)” value is “reduced expression of cleaved caspase 3”; the “liver damage and hemorrhage (H&E histopathology)” value is “reduced liver damage and hemorrhage”.
Regarding `Cc1cc2occ(CN(C)CCN(C)Cc3cn(-c4cccc(C(F)(F)F)c4)c4ccccc34)c(=O)c2cc1C` [SPD304], in the data set on TNFα/TNFRI, the IC50 is 22 µM. The “concentration above which no cells survived (cellular toxicity)” value in data set [1] is given as “more than 30 µM”; in data set [2], “more than 10 µM”. Moreover, the “toxicity precluding in vivo use” value in data set [3] is on record as “high toxicity”. The Kd at TNFα was 5.4 ± 0.2 µM.

The IC50 is the concentration at which inhibition is half-maximal. Broadly, the Kd is the equilibrium constant for the complex coming apart.
